Assay results as given in patent publication US20250019385A1, “SPIROCYCLIC ANNULATED 2-AMINO-3-CYANO THIOPHENES AND DERIVATIVES FOR THE TREATMENT OF CANCER” (Boehringer Ingelheim International GmbH, priority 2023, published 2025).
Values after ≈ are worked out from the molar mass of the structure shown. Read-outs that look alike come from different tables or passages of the source.

What was measured:
[1] = target: KRAS (G12D)::SOS1 protein-protein interaction (Homo sapiens (Human), UniProt P01116, G12D); assay: KRAS::SOS1 AlphaScreen binding assay (KRAS G12D); details: GDP
KRAS (G12D)::SOS1 protein-protein interaction, sequence (P01116 other isoform, or with tags, fused parts or gaps G12D): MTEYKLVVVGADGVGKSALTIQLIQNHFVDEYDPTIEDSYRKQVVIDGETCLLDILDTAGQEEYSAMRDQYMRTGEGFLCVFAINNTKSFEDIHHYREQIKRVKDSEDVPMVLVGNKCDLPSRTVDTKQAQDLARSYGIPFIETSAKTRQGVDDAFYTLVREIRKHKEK
Source text: This assay can be used to examine the potency with which compounds according to the invention binding to (mutated) KRAS inhibit the protein-protein interaction between SOS1 and (mutated) KRAS e.g. KRAS G12C, KRAS G12D. […] Low IC50 values in this assay setting are indicative of strong inhibition of protein-protein interaction between SOS1 and KRAS:
These assays measure the inhibitory effect of compounds on KRAS mutant protein-protein interactions using the Alpha Screen technology by Perkin Elmer.
The following (mutant) enzyme forms of KRAS and interacting proteins are used in these assays at the given concentrations:
KRAS (G12D) 1-169, N-terminal 6His-tag, C-terminal avi-tag (Xtal BioStructures, Inc.); final assay concentration 10 nM and SOS1 564-1049, N-terminal 229 GST-tag, TEV cleavage site (Viva Biotech Ltd); final assay concentration 5 nM;
Test compounds dissolved in DMSO are dispensed onto assay plates (Proxiplate 384 PLUS, white, PerkinElmer; 6008289) using an Access Labcyte Workstation with the Labcyte Echo 55x. For the chosen highest assay concentration of 100 μM, 150 nL of compound solution are transferred from a 10 mM DMSO compound stock solution. A series of eleven fivefold dilutions per compound are transferred to the assay plate, compound dilutions are tested in duplicates. DMSO are added as backfill to a total volume of 150 nL.
The assays run on a fully automated robotic system in a darkened room below 100 Lux. To 150 nl of compound dilution 10 μl of a mix including KRAS mutant protein, SOS1 (final assay concentrations see above) and GDP nucleotide (Sigma G7127; final assay concentration 10 μM) in assay buffer (1×PBS, 0.1% BSA, 0.05% Tween 20) are added into columns 1-24.
After 30 minutes incubation time 5 μl of Alpha Screen bead mix in assay buffer are added into columns 1-23. Bead mix consists of AlphaLISA Glutathione Acceptor Beads (PerkinElmer, Cat No AL109) and AlphaScreen Streptavidin Donor Beads (PerkinElmer Cat No 6760002) in assay buffer at a final assay concentration of 10 μg/mL each.
Plates are kept at room temperature in a darkened incubator. After an additional 60 minutes incubation time the signal is measured in a PerkinElmer Envision HTS Multilabel Reader using the AlphaScreen specs from PerkinElmer.
Each plate contains up to 16 wells of a negative control depending on the dilution procedure (platewise or serial) (DMSO instead of test compound; with KRAS mutant::SOS1 GOP mix and bead mix; column 23) and 16 wells of a positive control (DMSO instead of test compound; with KRAS mutant::SOS1 GOP mix w/o bead mix; column 24).
As internal control known inhibitors of KRAS mutant::SOS1 interaction can be measured on each compound plate.
IC50 values are calculated and analyzed with Boehringer Ingelheim's MEGALAB C50 application using a 4 parametric logistic model.
Tables of example compounds disclosed herein contain IC50 values determined using the above assays (see Table 43).

Ba/F3 cells KRAS G12C = assay: Ba/F3 proliferation assay (KRAS G12C); format: cell-based; details: Mus musculus, BaF3, 72 h, AlamarBlue viability
Experimental: (§1) Ba/F3 cells are ordered from DSMZ (ACC300, Lot17) and grown in RPMI-1640 (ATCC 30-2001)+10% FCS+10 ng/mL IL-3 at 37° C. in 5% […] atmosphere. Plasmids containing KRASG12 mutants (i.e. […], G12C, G12V) are obtained from GeneScript. To generate KRASG12-dependent Ba/F3 models, Ba/F3 cells are transduced with retroviruses containing vectors that harbor KRASG12 isoforms. Platinum-E cells (Cell Biolabs) are used for retrovirus packaging. Retrovirus is added to Ba/F3 cells. To ensure infection, 4 μg/mL polybrene is added and cells are spinfected. Infection efficiency is confirmed by measuring GFP-positive cells using a cell analyzer. Cells with an infection efficiency of 10% to 20% are further cultivated and puromycin selection with 1 μg/mL is initiated. As a control, parental Ba/F3 cells are used to show selection status. Selection is considered successful when parental Ba/F3 cells cultures died. To evaluate the transforming potential of KRASG12 mutations, the growth medium is no longer supplemented with IL-3. Ba/F3 cells harboring the empty vector are used as a control. Approximately ten days before conducting the experiments, puromycin is left out.
(§2) For proliferation assays, Ba/F3 cells are seeded into 384-well plates at 1.5×1 (M cells/60 μL in growth media (RPMI-1640+10% FCS). Compounds (10 mM stock in DMSO) are added at logarithmic dose series using the ECHO acoustic liquid handler system (Beckman Coulter), normalizing for added DMSO and including DMSO controls. All compound treatments are performed in technical duplicates. For the TO time point measurement, untreated cells are analyzed at the time of compound addition. Treated cells are incubated for 72 h at 37° C. with 5% CO2 and cell viability is measured in the PerkinElmer Envision Multimode Reader using AlamarBlue™ (ThermoFisher) viability stain. Viability (stated as percent of control) is defined as relative fluorescence units RFU of each well divided by the RFU of cells in DMSO controls. IC50 values are determined from viability measurements by non-linear regression using a four-parameter model.

Ba/F3 cells KRAS G12V = assay: Ba/F3 proliferation assay (KRAS G12V); format: cell-based; details: Mus musculus, BaF3, 72 h, AlamarBlue viability
Experimental: as §1, §2

[2] = Solubility measurement (DMSO solution precipitation method); format: physicochemical; details: aqueous buffer, kinetic from dmso stock
Experimental: A 10 mM DMSO stock solution of a test compound is used to determine its aq. solubility. The DMSO solution is diluted with an aq. medium (McIlvaine buffer with pH=4.5 or 6.8) to a final concentration of 250 μM. After 24 h of shaking at ambient temperature a potentially formed precipitate is removed by filtration. The concentration of the test compound in the filtrate is determined by LC-UV methods by calibrating the signal to the signal of a reference solution with complete dissolution of the test compound in acetonitrile/water (1:1) with known concentration.

Ba/F3 cells KRAS G12D = assay: Ba/F3 proliferation assay (KRAS G12D); format: cell-based; details: Mus musculus, BaF3, 72 h, AlamarBlue viability
Experimental: as §1, §2

[3] = McIlvaine buffer pH 4.5, 24 h, read-out: solubility pH 4.5
[4] = McIlvaine buffer pH 6.8, 24 h, read-out: solubility pH 6.8

| Compound | IC50 [1] | IC50 (Ba/F3 cells KRAS G12C) | IC50 (Ba/F3 cells KRAS G12V) | solubility at 24 h [2, 3] | solubility at 24 h [2, 4] | IC50 (Ba/F3 cells KRAS G12D) |
| --- | --- | --- | --- | --- | --- | --- |
| COCCn1c(=O)n([C@@H]2CCOC2)c2nc(-c3onc4c3CCC[C@@]43CCCc4sc(N)c(C#N)c43)nc(O[C@@H](C)[C@@H]3CCCN3C)c21 [I-1] | 1 nM | 15 nM | 8 nM | > 157 µg/mL | > 155 µg/mL | 36 nM |
| CO[C@H]1C[C@@H]([C@H](C)Oc2nc(-c3onc4c3CCC[C@@]43CCCc4sc(N)c(C#N)c43)nc3c2n(C)c(=O)n3[C@@H]2CCOC2)N(C)C1 [I-2] | 2 nM | 41 nM | 21 nM | > 159 µg/mL | 115 µg/mL (≈ 174 µM) | 90 nM |
| CO[C@@H]1C[C@@H]([C@H](C)Oc2nc(-c3onc4c3CCC[C@@]43CCCc4sc(N)c(C#N)c43)nc3c2n(C)c(=O)n3[C@@H]2CCOC2)N(C)C1 [I-3] | 1 nM | 6 nM | 3 nM | > 157 µg/mL | 77 µg/mL (≈ 117 µM) | 14 nM |
| C[C@H](Oc1nc(-c2onc3c2CCC[C@@]32CCCc3sc(N)c(C#N)c32)nc2c1n(C)c(=O)n2[C@@H]1CCOC1)[C@@H]1[C@H](F)CCN1C [I-4] | 4 nM | 58 nM | 25 nM | > 152 µg/mL | 28 µg/mL (≈ 43.2 µM) | 145 nM |
| C[C@H](Oc1nc(-c2onc3c2CCC[C@@]32CCCc3sc(N)c(C#N)c32)nc2c1n(C)c(=O)n2[C@@H]1CCOC1)[C@@H]1[C@@H](F)CCN1C [I-5] | 2 nM | 31 nM | 14 nM | > 150 µg/mL | 2 µg/mL (≈ 3.08 µM) | 68 nM |
| CO[C@H]1CCN(C)[C@@H]1[C@H](C)Oc1nc(-c2onc3c2CCC[C@@]32CCCc3sc(N)c(C#N)c32)nc2c1n(C)c(=O)n2[C@@H]1CCCOC1 [I-6] | 2 nM | 4 nM | 2 nM | > 164 µg/mL | < 1 µg/mL | 9 nM |
| COCCn1c(=O)n(C)c2c(O[C@@H](C)[C@@H]3CCCN3C)nc(-c3onc4c3CCC[C@@]43CCCc4sc(N)c(C#N)c43)nc21 [I-7] | 5 nM | 99 nM | 46 nM | > 150 µg/mL | > 147 µg/mL | 204 nM |
| C[C@H](Oc1nc(-c2onc3c2CCC[C@@]32CCCc3sc(N)c(C#N)c32)nc2c1[nH]c(=O)n2[C@@H]1CCOC1)[C@@H]1CCCN1C [I-8] | 1 nM | 41 nM | 20 nM | > 147 µg/mL | > 139 µg/mL | 107 nM |
| C[C@H](Oc1nc(-c2onc3c2CCC[C@@]32CCCc3sc(N)c(C#N)c32)nc2c1n(C)c(=O)n2[C@H]1CCOC1)[C@@H]1CCCN1C [I-9] | 2 nM | 38 nM | 20 nM | > 149 µg/mL | > 144 µg/mL | 46 nM |
| C[C@H](Oc1nc(-c2onc3c2CCC[C@@]32CCCc3sc(N)c(C#N)c32)nc2c1n(C)c(=O)n2C1CCOCC1)[C@@H]1CCCN1C [I-10] | 5 nM | 43 nM | 16 nM | > 151 µg/mL | > 148 µg/mL | 118 nM |
| C[C@H](Oc1nc(-c2onc3c2CCC[C@@]32CCCc3sc(N)c(C#N)c32)nc2c1n(C)c(=O)n2[C@H]1CCCOC1)[C@@H]1CCCN1C [I-11] | 6 nM | 310 nM | 128 nM | > 149 µg/mL | 99 µg/mL (≈ 154 µM) | 344 nM |
| CCn1c(=O)n([C@@H]2CCCOC2)c2nc(-c3onc4c3CCC[C@@]43CCCc4sc(N)c(C#N)c43)nc(OCC3(CN4CCCC4)CC3)c21 [I-35] | 7 nM | 177 nM | 104 nM |  |  | 411 nM |
| C[C@H](Oc1nc(-c2onc3c2CCC[C@@]32CCCc3sc(N)c(C#N)c32)nc2c1n(C)c(=O)n2[C@H]1CO[C@@H](C)C1)[C@@H]1CCCN1C [I-47] | 1 nM | 1 nM |  | > 132 µg/mL | 101 µg/mL (≈ 157 µM) | 1 nM |
| C[C@H](Oc1nc(-c2noc3c2CCC[C@@]32CCCc3sc(N)c(C#N)c32)nc2c1n(C)c(=O)n2[C@H]1CO[C@@H](C)C1)[C@@H]1CCCN1C [II-5] | 1 nM | 1 nM |  | > 142 µg/mL | 107 µg/mL (≈ 166 µM) | 2 nM |
| C[C@H](Oc1nc(-c2noc3c2CCC[C@@]32CCCc3sc(N)c(C#N)c32)nc2c1CCCO[C@]21CCOC1)[C@@H]1CCCN1C [II-10] | 1 nM | 7 nM | 6 nM |  |  | 22 nM |
| C[C@H](Oc1nc(-c2noc3c2CCC[C@@]32SCCc3sc(N)c(C#N)c32)nc2c1COC[C@]21CCOC1)[C@@H]1CCCN1C [II-16] | 1 nM | 1 nM | 1 nM |  |  | 3 nM |
